The text below walks through data of US8691865B2 (AbbVie Inc., priority 2008, dated 2014).

The target of the first experiment is human Cav2.2 (Homo sapiens, UniProt Q00975). As to the kind of experiment: Assessment of calcium channel activity using FLIPR (Ca2+ influx in IMR32 cells). Format: cell-based.
Sequence of human Cav2.2 (Q00975 whole entry): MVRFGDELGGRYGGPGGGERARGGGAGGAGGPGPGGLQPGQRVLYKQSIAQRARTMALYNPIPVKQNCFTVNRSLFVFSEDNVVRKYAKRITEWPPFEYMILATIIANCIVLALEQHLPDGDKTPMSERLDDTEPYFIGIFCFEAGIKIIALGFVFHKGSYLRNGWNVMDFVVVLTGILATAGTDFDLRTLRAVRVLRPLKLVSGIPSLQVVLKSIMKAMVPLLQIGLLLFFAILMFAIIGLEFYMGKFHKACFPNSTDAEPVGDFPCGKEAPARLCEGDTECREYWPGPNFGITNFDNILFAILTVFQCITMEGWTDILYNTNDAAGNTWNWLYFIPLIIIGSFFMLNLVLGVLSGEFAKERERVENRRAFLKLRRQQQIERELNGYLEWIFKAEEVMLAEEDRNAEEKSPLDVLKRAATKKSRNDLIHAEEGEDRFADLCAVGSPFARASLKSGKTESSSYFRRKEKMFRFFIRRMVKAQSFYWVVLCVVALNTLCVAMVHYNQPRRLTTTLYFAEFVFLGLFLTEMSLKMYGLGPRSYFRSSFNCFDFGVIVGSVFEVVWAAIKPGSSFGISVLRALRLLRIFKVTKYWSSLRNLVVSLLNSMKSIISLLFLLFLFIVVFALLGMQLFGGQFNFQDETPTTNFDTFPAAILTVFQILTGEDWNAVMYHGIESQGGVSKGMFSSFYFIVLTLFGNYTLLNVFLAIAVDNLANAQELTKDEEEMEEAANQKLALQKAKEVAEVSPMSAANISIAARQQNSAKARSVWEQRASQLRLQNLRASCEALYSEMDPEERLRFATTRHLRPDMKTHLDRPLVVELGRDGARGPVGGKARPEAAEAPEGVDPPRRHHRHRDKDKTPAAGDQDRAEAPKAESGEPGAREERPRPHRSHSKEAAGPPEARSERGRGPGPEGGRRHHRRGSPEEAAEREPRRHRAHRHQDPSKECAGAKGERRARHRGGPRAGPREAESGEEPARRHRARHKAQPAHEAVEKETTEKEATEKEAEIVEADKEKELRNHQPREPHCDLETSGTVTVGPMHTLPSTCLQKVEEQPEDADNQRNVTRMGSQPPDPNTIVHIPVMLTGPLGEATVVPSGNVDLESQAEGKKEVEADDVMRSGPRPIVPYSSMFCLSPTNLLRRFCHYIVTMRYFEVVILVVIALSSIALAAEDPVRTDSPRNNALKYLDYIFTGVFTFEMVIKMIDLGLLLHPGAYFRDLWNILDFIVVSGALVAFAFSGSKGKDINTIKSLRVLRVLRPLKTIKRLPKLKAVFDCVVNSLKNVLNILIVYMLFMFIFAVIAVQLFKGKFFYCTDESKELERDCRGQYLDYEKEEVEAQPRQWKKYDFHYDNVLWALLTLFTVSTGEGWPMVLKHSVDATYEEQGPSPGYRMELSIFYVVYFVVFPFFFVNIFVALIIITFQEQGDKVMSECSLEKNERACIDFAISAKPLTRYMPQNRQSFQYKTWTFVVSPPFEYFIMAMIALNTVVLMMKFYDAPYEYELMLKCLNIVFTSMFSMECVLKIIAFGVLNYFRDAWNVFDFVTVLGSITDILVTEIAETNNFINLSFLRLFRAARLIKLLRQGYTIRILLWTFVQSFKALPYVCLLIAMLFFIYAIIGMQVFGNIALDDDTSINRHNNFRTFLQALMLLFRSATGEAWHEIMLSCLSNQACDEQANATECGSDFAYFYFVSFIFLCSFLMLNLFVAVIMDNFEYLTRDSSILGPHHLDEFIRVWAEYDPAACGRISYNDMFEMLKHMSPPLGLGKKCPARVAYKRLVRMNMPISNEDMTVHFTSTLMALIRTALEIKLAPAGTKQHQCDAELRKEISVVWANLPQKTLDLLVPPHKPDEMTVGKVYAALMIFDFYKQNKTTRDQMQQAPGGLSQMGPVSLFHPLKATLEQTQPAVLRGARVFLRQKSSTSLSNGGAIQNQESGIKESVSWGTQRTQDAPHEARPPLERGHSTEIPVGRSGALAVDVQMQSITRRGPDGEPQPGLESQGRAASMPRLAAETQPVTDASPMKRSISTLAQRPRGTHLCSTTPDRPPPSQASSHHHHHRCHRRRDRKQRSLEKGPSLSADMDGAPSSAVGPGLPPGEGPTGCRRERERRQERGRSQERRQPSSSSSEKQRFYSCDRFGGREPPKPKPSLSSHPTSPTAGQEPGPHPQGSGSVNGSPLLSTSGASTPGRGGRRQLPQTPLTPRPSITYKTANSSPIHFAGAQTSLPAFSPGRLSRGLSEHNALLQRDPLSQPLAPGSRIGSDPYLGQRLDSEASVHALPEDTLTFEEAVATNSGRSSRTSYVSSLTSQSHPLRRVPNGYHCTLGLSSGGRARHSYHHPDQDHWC
Sequence of human Cav2.2 (P54289 25-956 partner limits assumed): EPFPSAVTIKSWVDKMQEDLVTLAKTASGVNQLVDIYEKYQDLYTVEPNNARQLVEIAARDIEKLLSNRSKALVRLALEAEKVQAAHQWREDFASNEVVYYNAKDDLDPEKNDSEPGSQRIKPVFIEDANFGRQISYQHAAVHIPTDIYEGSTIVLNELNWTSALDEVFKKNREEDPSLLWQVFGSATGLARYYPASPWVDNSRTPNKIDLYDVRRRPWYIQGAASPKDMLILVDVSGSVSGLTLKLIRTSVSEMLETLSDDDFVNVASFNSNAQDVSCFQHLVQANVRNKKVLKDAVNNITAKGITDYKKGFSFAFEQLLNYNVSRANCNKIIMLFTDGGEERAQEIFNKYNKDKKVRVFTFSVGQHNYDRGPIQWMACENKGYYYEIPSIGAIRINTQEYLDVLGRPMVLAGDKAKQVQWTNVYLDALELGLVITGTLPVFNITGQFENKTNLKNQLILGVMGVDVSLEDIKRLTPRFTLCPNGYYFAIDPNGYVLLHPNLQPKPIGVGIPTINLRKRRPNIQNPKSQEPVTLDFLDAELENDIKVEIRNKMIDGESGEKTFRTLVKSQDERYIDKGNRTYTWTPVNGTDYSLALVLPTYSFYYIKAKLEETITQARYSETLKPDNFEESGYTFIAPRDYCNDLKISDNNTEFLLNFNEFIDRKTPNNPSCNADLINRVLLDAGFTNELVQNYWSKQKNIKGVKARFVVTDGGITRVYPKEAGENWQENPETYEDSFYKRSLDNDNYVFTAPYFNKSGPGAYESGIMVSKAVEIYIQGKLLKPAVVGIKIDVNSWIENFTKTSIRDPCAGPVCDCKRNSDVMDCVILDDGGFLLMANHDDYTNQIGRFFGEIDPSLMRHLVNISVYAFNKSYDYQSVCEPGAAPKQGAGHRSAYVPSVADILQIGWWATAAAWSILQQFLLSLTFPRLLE
Sequence of human Cav2.2 (P54289 957-1103 partner limits assumed): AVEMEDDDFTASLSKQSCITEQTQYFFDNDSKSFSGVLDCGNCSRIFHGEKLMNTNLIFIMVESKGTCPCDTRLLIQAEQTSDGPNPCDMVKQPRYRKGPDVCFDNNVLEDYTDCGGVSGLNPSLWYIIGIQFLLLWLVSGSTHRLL
Sequence of human Cav2.2 (P54284 whole entry partner): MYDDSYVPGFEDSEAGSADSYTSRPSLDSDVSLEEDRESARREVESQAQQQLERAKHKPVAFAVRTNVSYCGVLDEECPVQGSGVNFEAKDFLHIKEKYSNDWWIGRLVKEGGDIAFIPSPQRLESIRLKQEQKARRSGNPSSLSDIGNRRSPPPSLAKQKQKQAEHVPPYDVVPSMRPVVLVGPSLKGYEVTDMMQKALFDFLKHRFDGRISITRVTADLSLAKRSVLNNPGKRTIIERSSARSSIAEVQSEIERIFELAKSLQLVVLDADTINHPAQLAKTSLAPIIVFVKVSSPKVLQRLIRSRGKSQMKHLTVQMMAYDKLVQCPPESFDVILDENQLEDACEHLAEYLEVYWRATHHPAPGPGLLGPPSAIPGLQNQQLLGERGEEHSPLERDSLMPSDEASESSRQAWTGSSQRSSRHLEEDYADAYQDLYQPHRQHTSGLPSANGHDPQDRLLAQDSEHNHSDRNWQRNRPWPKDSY
Conditions: not given
The method in brief:
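IC50 values derive from nonlinear sigmoidal fitting of percent inhibition, relative to inhibitor-free activity, of Ca2+ influx read by FLIPR. Cells were IMR32 human neuroblastoma, plated at 1−1.2×10^5 per well and grown 48 h at 37 °C.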
Regarding `O=C(N[C@@H]1CC[C@H]2CN(Cc3cccc(C(F)(F)F)c3)C[C@H]21)C(C1CCCCC1)C1CCCCC1` [Example 75, 2,2-dicyclohexyl-N-{(3aS,4R,6aR)-2-[3-(trifluoromethyl)benzyl]octahydrocyclopenta[c]pyrrol-4-yl}acetamide], the IC50 amounted to 0.45 µM.
Same read-out and setting: as for `O=C(N[C@@H]1CC[C@H]2CN(CCCCCC(c3ccc(F)cc3)c3ccc(F)cc3)C[C@H]21)C(C1CCCCC1)C1CCCCC1` [Example 78, N-{(3aS,4R,6aR)-2-[6,6-bis(4-fluorophenyl)hexyl]octahydrocyclopenta[c]pyrrol-4-yl}-2,2-dicyclohexylacetamide], the figure is 1.34 µM; as for `CC(C)C(C(=O)N[C@H]1CC[C@@H]2CN(CCCc3ccccc3)C[C@@H]21)c1ccccc1` (stereo partly drawn) [Example 105, 3-methyl-2-phenyl-N-[(3aR,4S,6aS)-2-(3-phenylpropyl)octahydrocyclopenta[c]pyrrol-4-yl]butanamide], 1.21 µM.
Still for that read-out and setting: as for `CC(C)C(C(=O)N[C@H]1CC[C@@H]2CN(CCCCc3ccccc3)C[C@@H]21)c1ccccc1` (stereo partly drawn) [Example 113, 3-methyl-2-phenyl-N-[(3aR,4S,6aS)-2-(4-phenylbutyl)octahydrocyclopenta[c]pyrrol-4-yl]butanamide], the figure is 0.59 µM.

Staying with this experiment, now noted: IC50 (μM) or percent inhibition (* indicates 3 minute incubation, otherwise 60 minute), IC50; 3 minute pre-incubation (*); IMR32 cells, 80 mM KCl depolarization.
Consider `CC(C)C(C(=O)N[C@H]1CC[C@@H]2CN(CC3CCCCC3)C[C@@H]21)c1ccccc1` (stereo partly drawn) [Example 83, N-[(3aR,4S,6aS)-2-(cyclohexylmethyl)octahydrocyclopenta[c]pyrrol-4-yl]-3-methyl-2-phenylbutanamide], for which the IC50 was found to be 2.6 µM.

The experiment is the same for the next values; noted with them: read-out: IC50 (μM) or percent inhibition (* indicates 3 minute incubation, otherwise 60 minute); IC50; 60 minute pre-incubation with compound; IMR32 cells, 80 mM KCl depolarization.
Take `O=C(N[C@@H]1CC[C@H]2CN(Cc3ccc(C(F)(F)F)c(F)c3)C[C@H]21)C(C1CCCCC1)C1CCCCC1` [Example 76, 2,2-dicyclohexyl-N-{(3aS,4R,6aR)-2-[3-fluoro-4-(trifluoromethyl)benzyl]octahydrocyclopenta[c]pyrrol-4-yl}acetamide]: the IC50 came out at 5.67 µM.
On the same count and under the same terms, as for `O=C(N[C@@H]1CC[C@H]2CN(Cc3cc(C(F)(F)F)cc(C(F)(F)F)c3)C[C@H]21)C(C1CCCCC1)C1CCCCC1` [Example 77, N-{(3aS,4R,6aR)-2-[3,5-bis(trifluoromethyl)benzyl]octahydrocyclopenta[c]pyrrol-4-yl}-2,2-dicyclohexylacetamide], the figure is 9.36 µM.
On the same count and under the same terms, as for `O=C(N[C@@H]1CC[C@H]2CN(CCC(c3ccccc3)c3ccccc3)C[C@H]21)C(C1CCCCC1)C1CCCCC1` [Example 79, 2,2-dicyclohexyl-N-[(3aS,4R,6aR)-2-(3,3-diphenylpropyl)octahydrocyclopenta[c]pyrrol-4-yl]acetamide], the figure is 0.94 µM; as for `O=C(N[C@@H]1CC[C@H]2CN(CCC(c3ccc(F)cc3)c3ccc(F)cc3)C[C@H]21)C(C1CCCCC1)C1CCCCC1` [Example 80, N-{(3aS,4R,6aR)-2-[3,3-bis(4-fluorophenyl)propyl]octahydrocyclopenta[c]pyrrol-4-yl}-2,2-dicyclohexylacetamide], 1.67 µM; as for `O=C(N[C@@H]1CC[C@H]2CN(CCCC(c3ccc(F)cc3)c3ccc(F)cc3)C[C@H]21)C(C1CCCCC1)C1CCCCC1` [Example 81, N-{(3aS,4R,6aR)-2-[4,4-bis(4-fluorophenyl)butyl]octahydrocyclopenta[c]pyrrol-4-yl}-2,2-dicyclohexylacetamide], 1.13 µM.
Take `CC(C)C(C(=O)N[C@@H]1CC[C@H]2CN(Cc3cccc(C(F)(F)F)c3)C[C@H]21)c1ccccc1` (stereo partly drawn) [Example 82, 3-methyl-2-phenyl-N-{(3aS,4R,6aR)-2-[3-(trifluoromethyl)benzyl]octahydrocyclopenta[c]pyrrol-4-yl}butanamide]: the IC50 amounted to 1.48 µM.
Same read-out and setting: as for `CC(C)C(C(=O)N[C@H]1CC[C@@H]2CN(Cc3ccccc3F)C[C@@H]21)c1ccccc1` (stereo partly drawn) [Example 85, N-[(3aR,4S,6aS)-2-(2-fluorobenzyl)octahydrocyclopenta[c]pyrrol-4-yl]-3-methyl-2-phenylbutanamide], the figure is 3.59 µM; as for `CC(C)C(C(=O)N[C@H]1CC[C@@H]2CN(Cc3cccc(Cl)c3)C[C@@H]21)c1ccccc1` (stereo partly drawn) [Example 86, N-[(3aR,4S,6aS)-2-(3-chlorobenzyl)octahydrocyclopenta[c]pyrrol-4-yl]-3-methyl-2-phenylbutanamide], 1.63 µM; as for `CC(C)C(C(=O)N[C@H]1CC[C@@H]2CN(Cc3cccc(F)c3)C[C@@H]21)c1ccccc1` (stereo partly drawn) [Example 87, N-[(3aR,4S,6aS)-2-(3-fluorobenzyl)octahydrocyclopenta[c]pyrrol-4-yl]-3-methyl-2-phenylbutanamide], 3.14 µM.
Still for that read-out and setting: as for `CC(C)C(C(=O)N[C@H]1CC[C@@H]2CN(Cc3cccc(C(F)(F)F)c3)C[C@@H]21)c1ccccc1` (stereo partly drawn) [Example 88, 3-methyl-2-phenyl-N-{(3aR,4S,6aS)-2-[3-(trifluoromethyl)benzyl]octahydrocyclopenta[c]pyrrol-4-yl}butanamide], the figure is 1.18 µM.
Consider `CC(C)C(C(=O)N[C@H]1CC[C@@H]2CN(Cc3ccc(F)cc3)C[C@@H]21)c1ccccc1` (stereo partly drawn) [Example 89, N-[(3aR,4S,6aS)-2-(4-fluorobenzyl)octahydrocyclopenta[c]pyrrol-4-yl]-3-methyl-2-phenylbutanamide], for which the IC50 turned out to be 2.01 µM.
Same read-out and setting: as for `Cc1cccc(CN2C[C@H]3CC[C@H](NC(=O)C(c4ccccc4)C(C)C)[C@H]3C2)c1` (stereo partly drawn) [Example 91, 3-methyl-N-[(3aR,4S,6aS)-2-(3-methylbenzyl)octahydrocyclopenta[c]pyrrol-4-yl]-2-phenylbutanamide], the figure is 1.78 µM; as for `Cc1ccccc1CN1C[C@H]2CC[C@H](NC(=O)C(c3ccccc3)C(C)C)[C@H]2C1` (stereo partly drawn) [Example 92, 3-methyl-N-[(3aR,4S,6aS)-2-(2-methylbenzyl)octahydrocyclopenta[c]pyrrol-4-yl]-2-phenylbutanamide], 2.04 µM; as for `Cc1cccc(C)c1CN1C[C@H]2CC[C@H](NC(=O)C(c3ccccc3)C(C)C)[C@H]2C1` (stereo partly drawn) [Example 93, N-[(3aR,4S,6aS)-2-(2,6-dimethylbenzyl)octahydrocyclopenta[c]pyrrol-4-yl]-3-methyl-2-phenylbutanamide], 3.26 µM.
Still for that read-out and setting: as for `COc1ccccc1CN1C[C@H]2CC[C@H](NC(=O)C(c3ccccc3)C(C)C)[C@H]2C1` (stereo partly drawn) [Example 94, N-[(3aR,4S,6aS)-2-(2-methoxybenzyl)octahydrocyclopenta[c]pyrrol-4-yl]-3-methyl-2-phenylbutanamide], the figure is 2.33 µM; as for `CC(C)C(C(=O)N[C@H]1CC[C@@H]2CN(Cc3ccc(C(C)(C)C)cc3)C[C@@H]21)c1ccccc1` (stereo partly drawn) [Example 95, N-[(3aR,4S,6aS)-2-(4-tert-butylbenzyl)octahydrocyclopenta[c]pyrrol-4-yl]-3-methyl-2-phenylbutanamide], 1.04 µM.
Consider `CC(C)C(C(=O)N[C@H]1CC[C@@H]2CN(Cc3cccs3)C[C@@H]21)c1ccccc1` (stereo partly drawn) [Example 102, 3-methyl-2-phenyl-N-[(3aR,4S,6aS)-2-(thien-2-ylmethyl)octahydrocyclopenta[c]pyrrol-4-yl]butanamide], for which the IC50 was determined as 2.77 µM.
On the same count and under the same terms, as for `CC(C)C(C(=O)N[C@H]1CC[C@@H]2CN(CCCCCC(c3ccc(F)cc3)c3ccc(F)cc3)C[C@@H]21)c1ccccc1` (stereo partly drawn) [Example 107, N-{(3aR,4S,6aS)-2-[6,6-bis(4-fluorophenyl)hexyl]octahydrocyclopenta[c]pyrrol-4-yl}-3-methyl-2-phenylbutanamide], the figure is 1.14 µM.

What is called IC50 is the point on the concentration scale where inhibition reaches its midpoint.
